Assay results: patent US9700637B2, “Reaction-based fluorescent probes for detecting zinc” (Massachusetts Institute of Technology, priority 2013, dated 2017)

Tested on: PC-3 cells
Experiment: Mitochondrial zinc uptake imaging in prostate cells
Type: cell-based, human
Experimental: FIG. 25 depicts decreased mitochondrial zinc uptake in cancerous cell lines. RWPE-1, RWPE-2, and PC-3 prostate cell lines were incubated for 24 h in medium supplemented with (+) and without (−) 50 μM ZnCl2. RWPE-1 is the only cell line that has a statistically significant (p<0.001) increase in mitochondrial zinc uptake when incubated in zinc-enriched media.
With a new mitochondrial-targeting sensor in hand, we used DA-ZP1-TPP to investigate the ability of prostate cell lines to accumulate zinc within their mitochondria. RWPE-1 and RWPE-2 are a pair of genetically similar cell lines that retain normal epithelial cell morphology, express cytokeratin markers for prostate epithelial cells, and are hormone sensitive. […] To explore the ability of RWPE-1 and -2 cells to sequester zinc in mitochondria, we measured the fluorescence intensity of DA-ZP1-TPP in both lines after the cells were bathed in normal or zinc-enriched (50 μM ZnCl2) keratinocyte serum-free medium (KSFM) for 24 h prior to imaging. RWPE-1 cells bathed in zinc-enriched medium have a fluorescence signal intensity that is ˜2.3-fold higher than cells bathed in normal medium (FIG. 25). […] Importantly, in both cell lines the observed fluorescence signals from DA-ZP1-TPP are sensitive to ZnPT and TPEN and have good correlation with MitoTracker Red, the Pearson's r values being 0.68±0.09 and 0.59±0.1 for RWPE-1 and -2, respectively. […]

For `CC(=O)Oc1c(Cl)cc2c(c1CN(Cc1ccccn1)Cc1ccccn1)Oc1c(cc(Cl)c(OC(C)=O)c1CN(Cc1ccccn1)Cc1ccccn1)C21OC(=O)c2ccc(C(=O)NCC[P+](c3ccccc3)(c3ccccc3)c3ccccc3)cc21` [DA-ZP1-TPP], the “increase in sensor fluorescence intensity, zinc-enriched medium” value (PC-3, 50 μM ZnCl2, RMPI 1640 with 10% FBS, 24 h) was “no statistically significant increase” and the “increase in fluorescence intensity, zinc-supplemented serum-free medium” value (PC-3, serum-free RMPI 1640, 15 μM ZnCl2, 3 h) was “no statistically significant increase”.
